Assays:
[1] = molecular target: T1, Adrenergic receptor alpha-2 (Rattus norvegicus, UniProt P22086+P19328+P22909)
T1 sequence (P22086 whole entry): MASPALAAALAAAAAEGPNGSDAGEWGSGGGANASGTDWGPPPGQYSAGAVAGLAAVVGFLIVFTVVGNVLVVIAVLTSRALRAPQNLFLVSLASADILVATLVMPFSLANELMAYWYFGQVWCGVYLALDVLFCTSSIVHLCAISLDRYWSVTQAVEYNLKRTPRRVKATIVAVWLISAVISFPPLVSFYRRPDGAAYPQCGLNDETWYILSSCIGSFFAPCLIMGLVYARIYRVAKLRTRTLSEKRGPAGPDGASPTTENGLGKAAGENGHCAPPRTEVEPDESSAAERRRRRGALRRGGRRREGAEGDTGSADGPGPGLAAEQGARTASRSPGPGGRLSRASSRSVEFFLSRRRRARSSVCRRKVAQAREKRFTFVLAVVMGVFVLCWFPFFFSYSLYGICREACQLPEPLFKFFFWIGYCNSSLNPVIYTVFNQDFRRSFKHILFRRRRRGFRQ
T1 sequence (P19328 whole entry): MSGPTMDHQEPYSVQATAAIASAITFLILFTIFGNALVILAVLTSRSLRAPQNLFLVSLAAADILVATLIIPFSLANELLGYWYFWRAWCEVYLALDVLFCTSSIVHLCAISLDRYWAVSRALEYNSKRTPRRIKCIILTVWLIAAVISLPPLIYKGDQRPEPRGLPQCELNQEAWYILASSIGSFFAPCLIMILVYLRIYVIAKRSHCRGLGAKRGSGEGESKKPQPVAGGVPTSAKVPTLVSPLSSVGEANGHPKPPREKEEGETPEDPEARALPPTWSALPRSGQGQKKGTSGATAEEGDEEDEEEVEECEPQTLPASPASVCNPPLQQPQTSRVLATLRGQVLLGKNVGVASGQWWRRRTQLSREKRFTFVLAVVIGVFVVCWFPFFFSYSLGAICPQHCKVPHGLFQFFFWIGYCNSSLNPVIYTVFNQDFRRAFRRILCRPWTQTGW
T1 sequence (P22909 whole entry): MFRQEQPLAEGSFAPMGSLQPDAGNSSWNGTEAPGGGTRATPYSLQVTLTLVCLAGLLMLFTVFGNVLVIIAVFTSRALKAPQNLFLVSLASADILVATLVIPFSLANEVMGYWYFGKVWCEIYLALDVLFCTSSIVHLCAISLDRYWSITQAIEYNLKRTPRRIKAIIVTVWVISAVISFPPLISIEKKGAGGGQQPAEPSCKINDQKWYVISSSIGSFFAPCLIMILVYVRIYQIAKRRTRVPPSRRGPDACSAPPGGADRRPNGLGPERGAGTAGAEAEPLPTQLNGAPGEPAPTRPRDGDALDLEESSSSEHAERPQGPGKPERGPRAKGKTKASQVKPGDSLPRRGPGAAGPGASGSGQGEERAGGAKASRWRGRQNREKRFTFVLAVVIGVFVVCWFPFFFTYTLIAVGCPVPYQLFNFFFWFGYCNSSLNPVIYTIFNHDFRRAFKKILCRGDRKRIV
Description: Displacement of [3H]rauwolscine from alpha-2 adrenergic receptor in rat cerebral cortex after 60 mins by liquid scintillation counting analysis

Histamine H1 receptor = Histamine H1 receptor (Cavia porcellus, UniProt P31389); assay: Displacement of [3H]mepyramine from histamine H1 receptor in guinea pig cerebellum after 60 mins by liquid scintillation counting analysis
Sequence of Histamine H1 receptor (P31389 whole entry): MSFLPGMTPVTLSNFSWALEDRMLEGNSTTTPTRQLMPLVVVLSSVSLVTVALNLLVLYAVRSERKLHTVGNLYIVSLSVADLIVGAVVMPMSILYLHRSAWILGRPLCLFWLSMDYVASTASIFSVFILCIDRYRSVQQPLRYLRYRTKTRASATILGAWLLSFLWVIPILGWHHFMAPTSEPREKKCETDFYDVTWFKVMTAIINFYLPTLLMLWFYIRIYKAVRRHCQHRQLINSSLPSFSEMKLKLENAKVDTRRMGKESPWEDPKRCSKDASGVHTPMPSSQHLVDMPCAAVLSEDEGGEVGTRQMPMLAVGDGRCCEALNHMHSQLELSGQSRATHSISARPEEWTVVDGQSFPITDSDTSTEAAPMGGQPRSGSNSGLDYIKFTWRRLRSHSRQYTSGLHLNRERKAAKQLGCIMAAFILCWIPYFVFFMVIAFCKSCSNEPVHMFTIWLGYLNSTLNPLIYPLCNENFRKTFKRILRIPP

D(2) dopamine receptor = D(2) dopamine receptor (Rattus norvegicus, UniProt P61169)
Sequence of D(2) dopamine receptor (P61169 whole entry): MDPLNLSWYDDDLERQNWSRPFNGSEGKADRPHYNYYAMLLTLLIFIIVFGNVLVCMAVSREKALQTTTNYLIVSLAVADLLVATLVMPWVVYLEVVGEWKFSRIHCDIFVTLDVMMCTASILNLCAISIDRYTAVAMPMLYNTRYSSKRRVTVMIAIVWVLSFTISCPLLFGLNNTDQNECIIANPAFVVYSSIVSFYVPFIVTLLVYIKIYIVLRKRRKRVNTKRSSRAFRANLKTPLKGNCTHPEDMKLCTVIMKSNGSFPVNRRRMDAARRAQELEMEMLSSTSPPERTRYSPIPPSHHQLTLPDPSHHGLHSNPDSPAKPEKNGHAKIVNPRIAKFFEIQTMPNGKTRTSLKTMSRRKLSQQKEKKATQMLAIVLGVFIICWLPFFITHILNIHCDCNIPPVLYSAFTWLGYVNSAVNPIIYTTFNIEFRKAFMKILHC

[2] = molecular target: T2, 5-hydroxytryptamine receptor 2C (Rattus norvegicus, UniProt P08909); assay: biochemical
T2 sequence (P08909 whole entry): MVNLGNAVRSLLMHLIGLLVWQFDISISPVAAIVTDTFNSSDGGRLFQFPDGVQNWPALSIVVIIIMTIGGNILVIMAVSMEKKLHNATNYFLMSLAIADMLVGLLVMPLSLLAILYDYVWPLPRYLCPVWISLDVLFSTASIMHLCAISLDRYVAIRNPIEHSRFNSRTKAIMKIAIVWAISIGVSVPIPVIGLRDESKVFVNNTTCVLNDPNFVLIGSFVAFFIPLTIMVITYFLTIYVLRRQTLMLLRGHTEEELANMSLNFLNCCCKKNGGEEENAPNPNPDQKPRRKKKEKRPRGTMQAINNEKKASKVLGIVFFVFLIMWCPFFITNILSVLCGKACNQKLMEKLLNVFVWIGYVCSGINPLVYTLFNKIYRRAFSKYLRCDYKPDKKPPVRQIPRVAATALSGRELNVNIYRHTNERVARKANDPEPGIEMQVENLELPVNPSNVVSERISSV
Description: Displacement of [3H]mesulergine from 5HT2C receptor in rat cerebral cortex after 15 mins by liquid scintillation counting analysis

Row | Ki [1] | Ki (Histamine H1 receptor) | Ki (D(2) dopamine receptor) | Ki [2] | Structure (SMILES)
1 | 159.6 nM | 19.6 nM | 4.9 nM | 11.9 nM | Cc1cc(=O)oc2cc(OCCCCN3CCC(c4noc5cc(F)ccc45)CC3)ccc12
2 | 124.3 nM | 550 nM | 4 nM | 389 nM | Cc1c(C)c2ccc(OCCCCN3CCC(c4noc5cc(F)ccc45)CC3)cc2oc1=O
3 | 598.6 nM | 21.3 nM | 5.3 nM | 68.9 nM | Cc1cc(=O)oc2c(C)c(OCCCCN3CCC(c4noc5cc(F)ccc45)CC3)ccc12
4 | 46.9 nM | 38.1 nM | 14.8 nM | 256 nM | O=c1cc(-c2ccccc2)c2ccc(OCCCCN3CCC(c4noc5cc(F)ccc45)CC3)cc2o1
5 | 86.9 nM | > 10000 nM | 1.4 nM | 1000 nM | COc1ccccc1N1CCN(CCCCOc2ccc3c(C)cc(=O)oc3c2)CC1

Row | Structure (SMILES) | Ki [1] | Ki (Histamine H1 receptor) | Ki (D(2) dopamine receptor) | Ki [2]
6 | Cc1cc(=O)oc2c(Cl)c(OCCCCN3CCC(c4noc5cc(F)ccc45)CC3)ccc12 | 15.6 nM | 1130 nM | 2.6 nM | 1700 nM

From ChEMBL document CHEMBL2385071, “Synthesis and biological investigation of coumarin piperazine (piperidine) derivatives as potential multireceptor atypical antipsychotics” (J Med Chem, 2013)
